“And” between values parts separate entries of the source, which are not always exact repeats. Equal values may be shown once.
Molecular target: T1, PfCRT^Dd2_F145I (Plasmodium falciparum, UniProt Q8IBZ9, A220S/F145I/I356T/K76T/M74I/N326S/N75E/Q271E/R371I)
T1 construct: expressed in transfected cells; host or cells: Xenopus laevis oocytes injected with in vitro transcribed RNA (pSP64T)
T1 sequence (Q8IBZ9 1-424 M74I/N75E/K76T/F145I/A220S/Q271E/N326S/I356T/R371I): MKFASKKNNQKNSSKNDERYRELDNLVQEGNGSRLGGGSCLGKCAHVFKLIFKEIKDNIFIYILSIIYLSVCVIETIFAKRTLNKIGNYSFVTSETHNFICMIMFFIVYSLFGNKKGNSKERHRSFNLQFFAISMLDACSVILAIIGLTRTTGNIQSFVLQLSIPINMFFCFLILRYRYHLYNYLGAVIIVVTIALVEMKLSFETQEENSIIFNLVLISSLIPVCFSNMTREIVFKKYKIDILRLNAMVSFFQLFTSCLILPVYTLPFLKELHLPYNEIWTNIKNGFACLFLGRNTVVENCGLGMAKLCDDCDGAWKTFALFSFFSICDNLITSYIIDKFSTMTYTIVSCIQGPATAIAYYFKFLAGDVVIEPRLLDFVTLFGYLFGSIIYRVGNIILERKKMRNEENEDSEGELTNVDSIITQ
Assay: Radiolabeled drug uptake in X. laevis oocytes expressing PfCRT^Dd2_F145I
Type: cell-based
Source text: The two kinetic parameters were derived by fitting the Michaelis-Menten equation to the kinetic data (Table 1).
A codon-optimized coding sequence of the Dd2 isoform of PfCRT (PfCRT^Dd2) was subcloned into the pSP64T expression vector [21]. To generate the necessary mutations to introduce the amino acid substitutions H97Y, F145I, M343L or G353V into the pfcrt sequence, the overlap extension method was used. A region from the 5’-untranslated Xenopus β-globin sequence to the respective 3’ region, containing the full length pfcrt coding sequence, was amplified using the following primer pairs: for the H97Y mutation, numbers 1/4 and 2/3; for the F145I mutation, numbers 1/6 and 2/5; for the M343L mutation, numbers 1/8 and 2/7; and for the G353V mutation, numbers 1/10 and 2/9 (for primers, see S2 Table). Both PCR products were used as template for amplification of the final product using primers number 1/2. The resulting fragment was cloned into the pSP64T expression vector, and the presence of the desired mutation was confirmed by sequencing.
Adult female X. laevis frogs (purchased from NASCO) were anesthetized by submersion in a solution of 0.3% (w/v) 3-amino benzoate methanesulfonate for 15 min. Sections of the ovary were surgically removed and placed in Ca^2+-free ND96 buffer supplemented with 0.1% collagenase D (w/v; Roche), 0.5% BSA (w/v) and 9 mM Na2HPO4 at 18°C for 14–16 h while gently shaking. The oocytes were then washed several times with ND96 buffer (5 mM HEPES, pH 7.5, 96 mM NaCl, 2 mM KCl, 1.8 mM CaCl2, 1 mM MgCl2), supplemented with […] gentamycin. Healthy-looking stage V-VI oocytes were manually selected and randomly grouped for injection. A codon-optimized coding sequence of PfCRT was subcloned into the pSP64T expression vector and subsequently linearized using the restriction endonuclease BamHI or SalI (New England Biolabs GmbH). RNA for injection was transcribed in vitro using the mMESSAGE mMACHINE SP6 Transcription kit (Ambion), diluted with nuclease-free water to a final concentration of 0.6 μg/μL and stored at -80°C. RNA was injected using precision-bore glass capillary tubes (3.5-inch glass capillaries; Drummond Scientific Co.), which were pulled on a vertical puller (P-87 Flaming/Brown micropipette puller, Sutter Instrument Co.) and graduated. The micropipettes were connected to a microinjector (Nanoject II Auto-Nanoliter Injector, Drummond Scientific Co.). Injection was conducted under stereomicroscopic control. 50 nL of nuclease-free water alone (control oocytes) or 50 nL of nuclease-free water containing 30 ng of RNA was injected per oocyte. Injected oocytes were kept for 72 h at 18°C in ND96 buffer with two daily buffer changes before being used for further experiments.
Drug transport assays were performed as previously described. Briefly, measurements of radiolabeled drug uptake were made over 1 h, unless otherwise specified. […] Where specified, one or more unlabeled drugs were also present at the indicated concentrations. […] The uptake assays were terminated by removing the oocytes from the reaction medium and washing them three times with 2 mL of ice-cold ND96 buffer. Each oocyte was transferred to a separate scintillation vial and lysed by the addition of 200 μL of a 5% SDS solution. The radioactivity in the sample was measured using a liquid scintillation analyser Tri-Carb 4910 TR (PerkinElmer). Water-injected oocytes were analyzed in parallel as a negative control. The buffer from each condition was measured in duplicate in parallel to each experiment to transform counts per minute into pmol of drug. Drug uptake attributable to PfCRT was determined by subtracting the background uptake from water-injected oocytes from that of PfCRT-expressing oocytes.

[1] = 50 μM CQ, pH 6.0, total uptake, one value per biological replicate
[2] = 50 μM CQ, pH 6.0, water-injected uptake subtracted, per replicate
[3] = 60 min, pH 6, per biological replicate

CCN(CC)CCCC(C)Nc1ccnc2cc(Cl)ccc12 (stereo not shown) [CQ, chloroquine]
PfCRTDd2_F145I-mediated CQ uptake at 10 µM CQ (10 µM CQ, single replicates): 1.05 pmol oocyte-1 h-1 and 0.76 pmol oocyte-1 h-1 and 0.87 pmol oocyte-1 h-1 | PfCRTDd2_F145I uptake of CQ at 10 min [1]: 5.03 pmol oocyte-1 and 4.98 pmol oocyte-1 and 4.51 pmol oocyte-1 and 3.10 pmol oocyte-1 and 1.40 pmol oocyte-1 | PfCRTDd2_F145I uptake of CQ at 30 min [1]: 5.64 pmol oocyte-1 and 11.05 pmol oocyte-1 and 6.90 pmol oocyte-1 and 4.67 pmol oocyte-1 and 6.95 pmol oocyte-1 | PfCRTDd2_F145I uptake of CQ at 60 min [1]: 18.17 pmol oocyte-1 and 7.02 pmol oocyte-1 and 13.61 pmol oocyte-1 | PfCRTDd2_F145I uptake of CQ at 90 min [1]: 12.38 pmol oocyte-1 and 19.74 pmol oocyte-1 and 12.45 pmol oocyte-1 and 15.73 pmol oocyte-1 | PfCRTDd2_F145I uptake of CQ at 120 min [1]: 27.64 pmol oocyte-1 and 15.50 pmol oocyte-1 and 17.12 pmol oocyte-1 and 17.11 pmol oocyte-1 | PfCRTDd2_F145I uptake of CQ at 180 min [1]: 16.65 pmol oocyte-1 and 27.26 pmol oocyte-1 and 23.91 pmol oocyte-1 and 24.65 pmol oocyte-1 and 18.05 pmol oocyte-1 | PfCRTDd2_F145I-mediated CQ uptake at 10 min [2]: 0.94 pmol oocyte-1 and 1.01 pmol oocyte-1 and 0.80 pmol oocyte-1 and 2.16 pmol oocyte-1 and 0.92 pmol oocyte-1 | PfCRTDd2_F145I-mediated CQ uptake at 30 min [2]: 0.42 pmol oocyte-1 and 1.71 pmol oocyte-1 and 1.49 pmol oocyte-1 and 3.31 pmol oocyte-1 and 2.06 pmol oocyte-1 | PfCRTDd2_F145I-mediated CQ uptake at 60 min [2]: 3.80 pmol oocyte-1 and 4.28 pmol oocyte-1 and 2.84 pmol oocyte-1 | PfCRTDd2_F145I-mediated CQ uptake at 90 min [2]: 3.78 pmol oocyte-1 and 4.21 pmol oocyte-1 and 3.32 pmol oocyte-1 and 5.64 pmol oocyte-1 | PfCRTDd2_F145I-mediated CQ uptake at 120 min [2]: 7.06 pmol oocyte-1 and 4.10 pmol oocyte-1 and 3.52 pmol oocyte-1 and 3.59 pmol oocyte-1 | PfCRTDd2_F145I-mediated CQ uptake at 180 min [2]: 3.40 pmol oocyte-1 and 6.55 pmol oocyte-1 and 4.77 pmol oocyte-1 and 7.29 pmol oocyte-1 and 3.73 pmol oocyte-1 | PfCRTDd2_F145I-mediated CQ uptake at 50 µM CQ (50 µM CQ, single replicates): 3.80 pmol oocyte-1 h-1 and 4.28 pmol oocyte-1 h-1 and 2.84 pmol oocyte-1 h-1 | PfCRTDd2_F145I-mediated CQ uptake at 100 µM CQ (100 µM CQ, single replicates): 7.23 pmol oocyte-1 h-1 and 7.33 pmol oocyte-1 h-1 and 8.14 pmol oocyte-1 h-1 | PfCRTDd2_F145I-mediated CQ uptake at 200 µM CQ (200 µM CQ, single replicates): 12.53 pmol oocyte-1 h-1 and 11.12 pmol oocyte-1 h-1 and 14.18 pmol oocyte-1 h-1 | PfCRTDd2_F145I-mediated CQ uptake at 300 µM CQ (300 µM CQ, single replicates): 13.73 pmol oocyte-1 h-1 and 16.27 pmol oocyte-1 h-1 and 18.53 pmol oocyte-1 h-1 | PfCRTDd2_F145I-mediated CQ uptake at 400 µM CQ (400 µM CQ, single replicates): 14.23 pmol oocyte-1 h-1 and 18.19 pmol oocyte-1 h-1 and 22.31 pmol oocyte-1 h-1 | PfCRTDd2_F145I-mediated CQ uptake at 500 µM CQ (500 µM CQ, single replicates): 19.16 pmol oocyte-1 h-1 and 17.39 pmol oocyte-1 h-1 and 23.99 pmol oocyte-1 h-1 | PfCRTDd2_F145I-mediated CQ uptake at 10 µM CQ [3]: 1.05 pmol oocyte-1 h-1 and 0.76 pmol oocyte-1 h-1 and 0.87 pmol oocyte-1 h-1 | PfCRTDd2_F145I-mediated CQ uptake at 50 µM CQ [3]: 2.84 pmol oocyte-1 h-1 and 3.80 pmol oocyte-1 h-1 and 4.28 pmol oocyte-1 h-1 | PfCRTDd2_F145I-mediated CQ uptake at 100 µM CQ [3]: 7.23 pmol oocyte-1 h-1 and 7.33 pmol oocyte-1 h-1 and 8.14 pmol oocyte-1 h-1 | PfCRTDd2_F145I-mediated CQ uptake at 200 µM CQ [3]: 12.53 pmol oocyte-1 h-1 and 11.12 pmol oocyte-1 h-1 and 14.18 pmol oocyte-1 h-1 | PfCRTDd2_F145I-mediated CQ uptake at 300 µM CQ [3]: 13.73 pmol oocyte-1 h-1 and 16.27 pmol oocyte-1 h-1 and 18.53 pmol oocyte-1 h-1 | PfCRTDd2_F145I-mediated CQ uptake at 400 µM CQ [3]: 14.23 pmol oocyte-1 h-1 and 18.19 pmol oocyte-1 h-1 and 22.31 pmol oocyte-1 h-1 | PfCRTDd2_F145I-mediated CQ uptake at 500 µM CQ [3]: 19.16 pmol oocyte-1 h-1 and 17.39 pmol oocyte-1 h-1 and 23.99 pmol oocyte-1 h-1 | Vmax, maximal velocity of drug transport (Michaelis-Menten fit, 10-500 μM drug, 60 min, pH 6): 35 ± 2 pmol oocyte^-1 h^-1 | increase of KM by the F145I substitution (versus PfCRT^Dd2): 44%

Source: paper PMC10281575, “PfCRT mutations conferring piperaquine resistance in falciparum malaria shape the kinetics of quinoline drug binding and transport” (PLOS Pathogens, 2023)
